Results from ChEMBL document CHEMBL1201862, “PubChem BioAssay data set” (2004).
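48-hour exposure; five concentrations; linearly interpolated endpoints. Abbreviation: GI50, concentration required for 50% inhibition of growth.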 Calls of active or inactive are those of the source. Rule as the data show it: active = GI50 up to about 1.1 µM and inactive = higher.

Legend:
Test in all cases: growth of human tumour cells (NCI), 48 h
ACHN = tested on: ACHN
OVCAR-4 = tested on: OVCAR-4
CAKI-1 = tested on: CAKI-1
NCI-H522 = tested on: NCI-H522
SK-MEL-5 = tested on: SK-MEL-5
HCT-116 = tested on: HCT-116
RXF 393 = tested on: RXF 393
SW-620 = tested on: SW-620
Malme-3M = tested on: Malme-3M
UACC-257 = tested on: UACC-257
SK-MEL-28 = tested on: SK-MEL-28
NCI-H460 = tested on: NCI-H460
PC-3 = tested on: PC-3
DU-145 = tested on: DU-145
OVCAR-5 = tested on: OVCAR-5
EKVX = tested on: EKVX
NCI/ADR-RES = tested on: NCI/ADR-RES
MDA-MB-231 = tested on: MDA-MB-231
KM12 = tested on: KM12
HL-60 = tested on: HL-60

SMILES | GI50 (ACHN) | GI50 (OVCAR-4) | GI50 (CAKI-1) | GI50 (NCI-H522) | GI50 (SK-MEL-5) | GI50 (HCT-116) | GI50 (RXF 393) | GI50 (SW-620) | GI50 (Malme-3M) | GI50 (UACC-257) | GI50 (SK-MEL-28) | GI50 (NCI-H460) | GI50 (PC-3) | GI50 (DU-145) | GI50 (OVCAR-5) | GI50 (EKVX) | GI50 (NCI/ADR-RES) | GI50 (MDA-MB-231) | GI50 (KM12) | GI50 (HL-60)
COC(=O)C(Cc1ccc(Oc2cc(CC(NC(=O)c3ccccc3)C(=O)OC)ccc2OC)cc1)NC(=O)c1ccccc1 (stereo not given) | 6.82 µM (inactive) | 26.4 µM (inactive) | 54.8 µM (inactive) | 7.29 µM (inactive) | 18.2 µM (inactive) | 30.3 µM (inactive) | 14.7 µM (inactive) | 39.3 µM (inactive) | 15.2 µM (inactive) | 7.35 µM (inactive) | 8.49 µM (inactive) | 22.8 µM (inactive) | 22.7 µM (inactive) | 16.9 µM (inactive) | > 100 µM (inactive) | 29.8 µM (inactive) | 35.2 µM (inactive) | 21.9 µM (inactive) | 37.5 µM (inactive) | 3.82 µM (inactive)
C[n+]1c(Cl)cn2c3nc4ccccc4nc3c([O-])c(C#N)c21 | 99.1 µM (inactive) | > 59 µM (inactive) | > 100 µM (inactive) | > 10 µM (inactive) | > 4.65 µM (inactive) | > 100 µM (inactive) | > 100 µM (inactive) | > 100 µM (inactive) | > 100 µM (inactive) | > 100 µM (inactive) | > 100 µM (inactive) | 9.48 µM (inactive) | > 100 µM (inactive) | > 100 µM (inactive) | > 10 µM (inactive) | > 100 µM (inactive) | > 100 µM (inactive) | > 100 µM (inactive) | > 10 µM (inactive) | > 100 µM (inactive)
CC(C)(Oc1ccc(Cl)cc1)C(=O)N(C(=O)N1CCN(c2ccccc2)CC1)c1ccccc1 | 9.71 µM (inactive) | 8.49 µM (inactive) | 7.87 µM (inactive) | 5.57 µM (inactive) | 4.68 µM (inactive) | 4.06 µM (inactive) | > 100 µM (inactive) | 8.93 µM (inactive) | > 100 µM (inactive) | 5.62 µM (inactive) | > 100 µM (inactive) | 3.75 µM (inactive) | 4.78 µM (inactive) | > 100 µM (inactive) | > 100 µM (inactive) | 5.83 µM (inactive) | 7.05 µM (inactive) | > 100 µM (inactive) | 6.22 µM (inactive) | 4.16 µM (inactive)
CC(C)c1ccc(/C(C(=O)O)=C(\O)C(=O)O)cc1 | > 100 µM (inactive) | > 100 µM (inactive) | > 100 µM (inactive) | > 100 µM (inactive) | > 100 µM (inactive) | > 100 µM (inactive) | > 100 µM (inactive) | > 100 µM (inactive) | > 100 µM (inactive) | > 100 µM (inactive) | > 100 µM (inactive) | > 100 µM (inactive) | > 100 µM (inactive) | > 100 µM (inactive) | > 100 µM (inactive) | > 100 µM (inactive) | > 100 µM (inactive) | > 100 µM (inactive) | > 100 µM (inactive) | > 100 µM (inactive)
O=C(N/N=C/c1ccc2c(c1)CCC2)c1ccccc1O | 18.6 µM (inactive) | 24.8 µM (inactive) | 28.4 µM (inactive) | 21.5 µM (inactive) | 33.9 µM (inactive) | 19.4 µM (inactive) | 23 µM (inactive) | 31.1 µM (inactive) | 21.4 µM (inactive) | 28.6 µM (inactive) | 23.5 µM (inactive) | 22.1 µM (inactive) | 19.7 µM (inactive) | 48 µM (inactive) | 32.5 µM (inactive) | 27.1 µM (inactive) | 24.4 µM (inactive) | 19.5 µM (inactive) | 20.9 µM (inactive) | 23.2 µM (inactive)
CC(C)=C1CCC(CN2CCOCC2)C1=O (stereo not given) | 9.84 µM (inactive) | 8.18 µM (inactive) | 0.348 µM (active) | 0.0454 µM (active) | 15.9 µM (inactive) | 4.43 µM (inactive) | 2.07 µM (inactive) | 1.76 µM (inactive) | 3.58 µM (inactive) | 16.2 µM (inactive) | 14.9 µM (inactive) | 27.2 µM (inactive) | 17.5 µM (inactive) | 16.4 µM (inactive) | 18.2 µM (inactive) | 17.7 µM (inactive) | 13.3 µM (inactive) | 17.4 µM (inactive) | 29.4 µM (inactive) | 4.12 µM (inactive)
Cc1cc(N)c2ccccc2[n+]1CCCCCCCCCC[n+]1c(C)cc(N)c2ccccc21 [DEQUALINIUM CHLORIDE] | 1.11 µM (active) | 2.43 µM (inactive) | 7.06 µM (inactive) | 0.752 µM (active) | 0.528 µM (active) | 1.31 µM (inactive) | 10.4 µM (inactive) | 2.22 µM (inactive) | 3.05 µM (inactive) | 2.91 µM (inactive) | 0.879 µM (active) | 0.54 µM (active) | 1.07 µM (active) | 2.74 µM (inactive) | 2.34 µM (inactive) | 1.82 µM (inactive) | 10.5 µM (inactive) | 1.82 µM (inactive) | 0.69 µM (active) | 0.533 µM (active)
CC1(C)CCCCCC(O)C(O)CCC(C)(C)C1=O (stereo not given) | > 100 µM (inactive) | > 100 µM (inactive) | > 100 µM (inactive) | 83.9 µM (inactive) | > 100 µM (inactive) | > 100 µM (inactive) | > 100 µM (inactive) | > 100 µM (inactive) | > 100 µM (inactive) | > 100 µM (inactive) | > 100 µM (inactive) | > 100 µM (inactive) | > 100 µM (inactive) | > 100 µM (inactive) | > 100 µM (inactive) | > 100 µM (inactive) | > 100 µM (inactive) | > 100 µM (inactive) | > 100 µM (inactive) | > 100 µM (inactive)
Cc1ccc(C(=O)/C=C(O)/C(O)=C/C(=O)c2ccc(C)cc2C)c(C)c1 | 1.84 µM (inactive) | 2.7 µM (inactive) | 2.07 µM (inactive) | 1.64 µM (inactive) | 1.75 µM (inactive) | 2.32 µM (inactive) | 2.02 µM (inactive) | 2.37 µM (inactive) | 1.86 µM (inactive) | 1.71 µM (inactive) | 1.86 µM (inactive) | 1.71 µM (inactive) | 2.31 µM (inactive) | 2.36 µM (inactive) | 2.06 µM (inactive) | 2.34 µM (inactive) | 1.92 µM (inactive) | 2.34 µM (inactive) | 1.88 µM (inactive) | 0.0641 µM (active)
CC(C)C(NCc1c(O)ccc2c(-c3ccccc3)cc(=O)oc12)C(=O)O (stereo not given) | > 100 µM (inactive) | > 100 µM (inactive) | > 100 µM (inactive) | > 100 µM (inactive) | > 100 µM (inactive) | > 100 µM (inactive) | > 100 µM (inactive) | > 100 µM (inactive) | > 100 µM (inactive) | > 100 µM (inactive) | > 100 µM (inactive) | > 100 µM (inactive) | > 100 µM (inactive) | > 100 µM (inactive) | > 100 µM (inactive) | > 100 µM (inactive) | > 100 µM (inactive) | > 100 µM (inactive) | > 100 µM (inactive) | > 100 µM (inactive)
O=C(O)/C(=C\c1ccccc1)Cc1ccccc1 | > 100 µM (inactive) | > 100 µM (inactive) | > 100 µM (inactive) | > 100 µM (inactive) | > 100 µM (inactive) | > 100 µM (inactive) | > 100 µM (inactive) | > 100 µM (inactive) | > 100 µM (inactive) | > 100 µM (inactive) | > 100 µM (inactive) | > 100 µM (inactive) | > 100 µM (inactive) | > 100 µM (inactive) | > 100 µM (inactive) | > 100 µM (inactive) | > 100 µM (inactive) | > 100 µM (inactive) | > 100 µM (inactive) | > 100 µM (inactive)
Cc1cc(C)nc(NS(=O)(=O)c2ccc(NNc3c4ccccc4nc4c(C(=O)Nc5ccc(S(=O)(=O)Nc6ncccn6)cc5)cccc34)cc2)n1 | 23.3 µM (inactive) | 33.7 µM (inactive) | 36.3 µM (inactive) | 18.7 µM (inactive) | 21.2 µM (inactive) | 17.4 µM (inactive) | 35.3 µM (inactive) | 21.6 µM (inactive) | 26.7 µM (inactive) | 33.7 µM (inactive) | 29.5 µM (inactive) | 25.6 µM (inactive) | 26.5 µM (inactive) | 31.8 µM (inactive) | 16.4 µM (inactive) | 19.5 µM (inactive) | > 100 µM (inactive) | 31.3 µM (inactive) | 34.5 µM (inactive) | 25.7 µM (inactive)
CC(C)=CCCC(C)C1=C(O)C(=O)C(C)=CC1=O (stereo not given) | 1.88 µM (inactive) | 6.41 µM (inactive) | 5.89 µM (inactive) | 2.1 µM (inactive) | 11.6 µM (inactive) | 4.71 µM (inactive) | 4.74 µM (inactive) | 5.94 µM (inactive) | 9.29 µM (inactive) | 9.12 µM (inactive) | 4.24 µM (inactive) | 27.7 µM (inactive) | 17.4 µM (inactive) | 17.6 µM (inactive) | 16.4 µM (inactive) | 5.94 µM (inactive) | 12.2 µM (inactive) | 2.98 µM (inactive) | 18.3 µM (inactive) | 0.332 µM (active)
C=CCN(CCNS(=O)(=O)c1ccc(C)cc1)S(=O)(=O)c1ccc(C)cc1 | 13.6 µM (inactive) | 12.2 µM (inactive) | 87.9 µM (inactive) | 12.9 µM (inactive) | 6.17 µM (inactive) | 34.2 µM (inactive) | > 67.6 µM (inactive) | > 82.2 µM (inactive) | 36.1 µM (inactive) | 8.02 µM (inactive) | > 91.4 µM (inactive) | 9.46 µM (inactive) | > 48 µM (inactive) | 54.6 µM (inactive) | 58.2 µM (inactive) | 31.9 µM (inactive) | > 60.5 µM (inactive) | > 100 µM (inactive) | 57.8 µM (inactive) | 21.9 µM (inactive)
